From ChEMBL document CHEMBL4308841, “Synthesis, in vitro antiproliferative activity, and kinase inhibitory effects of pyrazole-containing diarylureas and diarylamides” (Eur J Med Chem, 2018)
pIC50: −log10 of the molar value.

Experiments:
[1] = test system: CAKI-1; experiment: Growth inhibition of human Caki1 cells assessed as cell growth at 1 uM incubated for 48 hrs by sulforhodamine B assay relative to control; assay type: functional; conditions: CAKI-1, 48 h, read-out: Activity
[2] = test system: SW-620; experiment: Growth inhibition of human SW620 cells assessed as cell growth at 0.01 uM incubated for 48 hrs by sulforhodamine B assay relative to control; assay type: functional; conditions: SW-620, 48 h, read-out: Activity
[3] = test system: SK-MEL-2; experiment: Growth inhibition of human SK-MEL-2 cells assessed as cell growth at 0.01 uM incubated for 48 hrs by sulforhodamine B assay relative to control; assay type: functional; conditions: SK-MEL-2, 48 h, read-out: Activity
[4] = test system: HCC 2998; experiment: Growth inhibition of human HCC2998 cells assessed as cell growth at 0.1 uM incubated for 48 hrs by sulforhodamine B assay relative to control; assay type: functional; conditions: HCC 2998, 48 h, read-out: Activity
[5] = test system: HCT-15; experiment: Growth inhibition of human HCT15 cells assessed as cell growth at 1 uM incubated for 48 hrs by sulforhodamine B assay relative to control; assay type: functional; conditions: HCT-15, 48 h, read-out: Activity
[6] = test system: DU-145; experiment: Growth inhibition of human DU145 cells assessed as cell growth at 0.1 uM incubated for 48 hrs by sulforhodamine B assay relative to control; assay type: functional; conditions: DU-145, 48 h, read-out: Activity
[7] = test system: A549; experiment: Growth inhibition of human A549/ATCC cells incubated for 48 hrs by sulforhodamine B assay; assay type: functional, cell-based; conditions: A549, 48 h
[8] = test system: M14; experiment: Growth inhibition of human M14 cells assessed as cell growth at 100 uM incubated for 48 hrs by sulforhodamine B assay relative to control; assay type: functional; conditions: M14, 48 h, read-out: Activity
[9] = test system: A498; experiment: Growth inhibition of human A498 cells assessed as cell growth at 1 uM incubated for 48 hrs by sulforhodamine B assay relative to control; assay type: functional; conditions: A498, 48 h, read-out: Activity
[10] = test system: A498; experiment: Growth inhibition of human A498 cells assessed as cell growth at 0.1 uM incubated for 48 hrs by sulforhodamine B assay relative to control; assay type: functional; conditions: A498, 48 h, read-out: Activity
[11] = test system: NCI-H322M; experiment: Growth inhibition of human NCI-H322M cells assessed as cell growth at 1 uM incubated for 48 hrs by sulforhodamine B assay relative to control; assay type: functional; conditions: read-out: Activity
[12] = test system: SN12C; experiment: Growth inhibition of human SN12C cells assessed as cell growth at 0.1 uM incubated for 48 hrs by sulforhodamine B assay relative to control; assay type: functional; conditions: read-out: Activity
[13] = test system: HL-60(TB); experiment: Growth inhibition of human HL-60(TB) cells incubated for 48 hrs by sulforhodamine B assay; assay type: functional, cell-based; conditions: HL-60, 48 h
[14] = test system: SK-MEL-2; experiment: Growth inhibition of human SK-MEL-2 cells assessed as cell growth at 100 uM incubated for 48 hrs by sulforhodamine B assay relative to control; assay type: functional; conditions: SK-MEL-2, 48 h, read-out: Activity
[15] = test system: BT-549; experiment: Growth inhibition of human BT549 cells assessed as cell growth at 0.01 uM incubated for 48 hrs by sulforhodamine B assay relative to control; assay type: functional; conditions: BT-549, 48 h, read-out: Activity
[16] = test system: NCI-H522; experiment: Growth inhibition of human NCI-H522 cells assessed as cell growth at 0.1 uM incubated for 48 hrs by sulforhodamine B assay relative to control; assay type: functional; conditions: NCI-H522, 48 h, read-out: Activity
[17] = test system: SK-OV-3; experiment: Growth inhibition of human SKOV3 cells assessed as cell growth at 0.1 uM incubated for 48 hrs by sulforhodamine B assay relative to control; assay type: functional; conditions: SK-OV-3, 48 h, read-out: Activity
[18] = test system: HCC 2998; experiment: Growth inhibition of human HCC2998 cells assessed as cell growth at 1 uM incubated for 48 hrs by sulforhodamine B assay relative to control; assay type: functional; conditions: HCC 2998, 48 h, read-out: Activity
[19] = test system: SK-OV-3; experiment: Growth inhibition of human SKOV3 cells incubated for 48 hrs by sulforhodamine B assay; assay type: functional, cell-based; conditions: SK-OV-3, 48 h
[20] = test system: A549; experiment: Growth inhibition of human A549/ATCC cells assessed as cell growth at 1 uM incubated for 48 hrs by sulforhodamine B assay relative to control; assay type: functional; conditions: A549, 48 h, read-out: Activity
[21] = test system: UACC-62; experiment: Growth inhibition of human UACC62 cells assessed as cell growth at 100 uM incubated for 48 hrs by sulforhodamine B assay relative to control; assay type: functional; conditions: UACC-62, 48 h, read-out: Activity
[22] = test system: MDA-MB-231; experiment: Growth inhibition of human MDA-MB-231 cells assessed as cell growth at 100 uM incubated for 48 hrs by sulforhodamine B assay relative to control; assay type: functional; conditions: MDA-MB-231, 48 h, read-out: Activity
[23] = test system: SNB-19; experiment: Growth inhibition of human SNB19 cells assessed as cell growth at 0.01 uM incubated for 48 hrs by sulforhodamine B assay relative to control; assay type: functional; conditions: SNB-19, 48 h, read-out: Activity
[24] = test system: HCT-116; experiment: Growth inhibition of human HCT116 cells assessed as cell growth at 0.01 uM incubated for 48 hrs by sulforhodamine B assay relative to control; assay type: functional; conditions: HCT-116, 48 h, read-out: Activity
[25] = test system: OVCAR-5; experiment: Growth inhibition of human OVCAR5 cells assessed as cell growth at 0.1 uM incubated for 48 hrs by sulforhodamine B assay relative to control; assay type: functional; conditions: OVCAR-5, 48 h, read-out: Activity
[26] = test system: K562; experiment: Growth inhibition of human K562 cells assessed as cell growth at 1 uM incubated for 48 hrs by sulforhodamine B assay relative to control; assay type: functional; conditions: K562, 48 h, read-out: Activity
[27] = test system: UACC-62; experiment: Growth inhibition of human UACC62 cells incubated for 48 hrs by sulforhodamine B assay; assay type: functional, cell-based; conditions: UACC-62, 48 h
[28] = test system: IGROV-1; experiment: Growth inhibition of human IGROV1 cells assessed as cell growth at 0.01 uM incubated for 48 hrs by sulforhodamine B assay relative to control; assay type: functional; conditions: IGROV-1, 48 h, read-out: Activity
[29] = test system: HCT-116; experiment: Growth inhibition of human HCT116 cells assessed as cell growth at 1 uM incubated for 48 hrs by sulforhodamine B assay relative to control; assay type: functional; conditions: HCT-116, 48 h, read-out: Activity
[30] = test system: SNB-75; experiment: Growth inhibition of human SNB75 cells assessed as cell growth at 0.01 uM incubated for 48 hrs by sulforhodamine B assay relative to control; assay type: functional; conditions: SNB-75, 48 h, read-out: Activity
[31] = test system: OVCAR-8; experiment: Growth inhibition of human OVCAR8 cells assessed as cell growth at 0.1 uM incubated for 48 hrs by sulforhodamine B assay relative to control; assay type: functional; conditions: OVCAR-8, 48 h, read-out: Activity
[32] = read-out: LC50 (the source's name)
[33] = read-out: pLC50 (the source's name) (converted)

COc1cc(Cl)cc(-c2nn(-c3cccc(NC(=O)Nc4ccc(Cl)c(Cl)c4)c3)cc2-c2ccncc2)c1
growth at 1 µM [1]: 79% | growth at 0.01 µM [2]: 100% | growth at 0.01 µM [3]: 96% | growth at 0.1 µM [4]: 96% | growth at 1 µM [5]: 77% | growth at 0.1 µM [6]: 97% | pIC50 [7]: 5.83 | GI50 ([7]; read-out: GI50): 1.48 µM | CC50 [7, 32]: > 100 µM | TGI ([7]; read-out: TGI): 15.3 µM | GI50 ([7]; read-out: pGI50 (converted)): 1.48 µM | CC50 [7, 33]: > 100 µM | TGI ([7]; read-out: pTGI (converted)): 15.5 µM | growth at 100 µM [8]: -36% | growth at 1 µM [9]: 73% | growth at 0.1 µM [10]: 58% | growth at 1 µM [11]: 88% | growth at 0.1 µM [12]: 100% | GI50 ([13]; read-out: GI50): 2.19 µM | LC50 ([13]; read-out: LC50): > 100 µM | TGI ([13]; read-out: TGI): 55.8 µM | GI50 ([13]; read-out: pGI50 (converted)): 2.19 µM | LC50 ([13]; read-out: pLC50 (converted)): > 100 µM | TGI ([13]; read-out: pTGI (converted)): 5.62 µM | growth at 100 µM [14]: -70% | growth at 0.01 µM [15]: 96% | growth at 0.1 µM [16]: 53% | growth at 0.1 µM [17]: 90% | growth at 1 µM [18]: 91% | GI50 ([19]; read-out: GI50): 3.5 µM | CC50 [19, 32]: > 100 µM | TGI ([19]; read-out: TGI): 57 µM | GI50 ([19]; read-out: pGI50 (converted)): 3.63 µM | CC50 [19, 33]: > 100 µM | TGI ([19]; read-out: pTGI (converted)): 87.1 µM | growth at 1 µM [20]: 82% | growth at 100 µM [21]: -32% | growth at 100 µM [22]: -70% | growth at 0.01 µM [23]: 92% | growth at 0.01 µM [24]: 105% | growth at 0.1 µM [25]: 59% | growth at 1 µM [26]: 67% | pIC50 [27]: 5.62 | GI50 ([27]; read-out: GI50): 2.4 µM | CC50 [27, 32]: > 100 µM | TGI ([27]; read-out: TGI): 16.3 µM | GI50 ([27]; read-out: pGI50 (converted)): 2.4 µM | CC50 [27, 33]: > 100 µM | TGI ([27]; read-out: pTGI (converted)): 16.2 µM | growth at 0.01 µM [28]: 98% | growth at 1 µM [29]: 71% | growth at 0.01 µM [30]: 88% | growth at 0.1 µM [31]: 101%

COc1cc(Cl)cc(-c2nn(-c3cccc(NC(=O)Nc4cccc(C(F)(F)F)c4)c3)cc2-c2ccncc2)c1
growth at 1 µM [1]: 57% | growth at 0.01 µM [2]: 103% | growth at 0.01 µM [3]: 95% | growth at 0.1 µM [4]: 98% | growth at 1 µM [5]: 57% | growth at 0.1 µM [6]: 99% | pIC50 [7]: 6.14 | GI50 ([7]; read-out: GI50): 0.726 µM | CC50 [7, 32]: > 100 µM | TGI ([7]; read-out: TGI): 74.2 µM | GI50 ([7]; read-out: pGI50 (converted)): 0.724 µM | CC50 [7, 33]: > 100 µM | TGI ([7]; read-out: pTGI (converted)): 7.41 µM | growth at 100 µM [8]: -78% | growth at 1 µM [9]: 75% | growth at 0.1 µM [10]: 92% | growth at 1 µM [11]: 83% | growth at 0.1 µM [12]: 96% | GI50 ([13]; read-out: GI50): 1.91 µM | LC50 ([13]; read-out: LC50): > 100 µM | TGI ([13]; read-out: TGI): 55.1 µM | GI50 ([13]; read-out: pGI50 (converted)): 1.91 µM | LC50 ([13]; read-out: pLC50 (converted)): > 100 µM | TGI ([13]; read-out: pTGI (converted)): 5.5 µM | growth at 100 µM [14]: -68% | growth at 0.01 µM [15]: 107% | growth at 0.1 µM [16]: 53% | growth at 0.1 µM [17]: 98% | growth at 1 µM [18]: 98% | GI50 ([19]; read-out: GI50): 3.61 µM | CC50 [19, 32]: > 100 µM | TGI ([19]; read-out: TGI): 55.4 µM | GI50 ([19]; read-out: pGI50 (converted)): 3.63 µM | CC50 [19, 33]: > 100 µM | TGI ([19]; read-out: pTGI (converted)): 58.9 µM | growth at 1 µM [20]: 43% | growth at 100 µM [21]: -82% | growth at 100 µM [22]: -43% | growth at 0.01 µM [23]: 98% | growth at 0.01 µM [24]: 101% | growth at 0.1 µM [25]: 54% | growth at 1 µM [26]: 45% | pIC50 [27]: 5.83 | GI50 ([27]; read-out: GI50): 1.47 µM | CC50 [27, 32]: 10.2 µM | TGI ([27]; read-out: TGI): 33.4 µM | GI50 ([27]; read-out: pGI50 (converted)): 1.48 µM | CC50 [27, 33]: 10.2 µM | TGI ([27]; read-out: pTGI (converted)): 3.8 µM | growth at 0.01 µM [28]: 106% | growth at 1 µM [29]: 43% | growth at 0.01 µM [30]: 83% | growth at 0.1 µM [31]: 99%
